Test results taken from US9006440B2, “Furopyridine derivatives” (Merck Patent GmbH, priority 2010, dated 2015).

Target: T1, Syk (Homo sapiens, UniProt P43405)
T1 construct: purchased BPS Bioscience, CA, USA
Experiment: Syk enzyme assay (SYK flash plate assay / Caliper mobility shift)
Type: biochemical
Protocol: The kinase assay is performed either as 384-well Flashplate assay (for e.g. Topcount measurement) or as 384-well Image-Flashplate assay (for LEADseeker measurement).
2.5 nM SYK, 400 nM Biotin-Aha-Aha-KEDPDYEWPSAKK
and 10 μM ATP (spiked with 0.3 μCi 33P-ATP/well) are incubated in a total volume of 50 μl (60 mM Hepes, 10 mM MgCl2, 1.2 mM Dithiothreitol, 0.02% Brij35, 0.1% BSA, pH 7.5) with or without test compound for 1 hours at 30° C. The reaction is stopped with 25 μl 200 mM EDTA. After 30 Min at 30° C. the liquid is removed and each well washed thrice with 100 μl 0.9% sodium chloride solution. Non-specific reaction is determined in presence of 0.1 μM Staurosporine. Radioactivity is measured with Topcount (when using Flashplates) or with LEADseeker (when using Image-Flashplates) respectively. Results (e.g. IC50-values) are calculated with program tools provided by the IT-department (e.g. Symyx Assay Explorer, Genedata Screener). Enzymatic Assays Using the Caliper LifeSciences Technology
The assays described here are performed on the Caliper Life Sciences LC3000 system This technology provides data on enzyme activity via measurement of the relative amounts of phosphorylated or unphosphorylated fluorescently labelled substrate peptide at the end of an enzymatic reaction. These different states of peptide are resolved by applying a potential difference across the sample. The presence of the charged phosphate group on the product (as opposed to the substrate) causes a different peptide mobility between the two peptides. This is visualized by excitation of the fluorescent label on the substrate and product peptides and represented as peaks within the analysis software.
In order to measure inhibitor activity of kinase inhibitors on this technology, a TTP Mosquito liquid handling instrument is used to place 0.25 ul of the appropriate concentration of inhibitor in 100% DMSO (for a dose response curve calculation) into each well of a 384-well plate. To this reaction components are added to a final volume of 25 ul. The table below indicates the sequences and concentrations for the assays described in this report. Standard components are 1 mM DTT (Sigma, D0632), 1 mM MgCl2 (Sigma, M1028), 100 mM HEPES pH 7.5 (Calbiochem, 391338), 0.015% Brij-35 (Sigma, B4184).
The reaction is incubated for 90 min at 25 C, and then stopped by the addition of 70 ul of Stop buffer (100 mM HEPES pH 7.5, 0.015% Brij-35, 10 mM EDTA (Sigma, E7889)).
The plate is read on a Caliper LC 3000 in an Off-Chip mobility shift assay format, on a 12-sipper chip. Unphosphorylated substrate and phosphorylated product peptide resolve as separate peaks allowing direct measurement of percentage of conversion of substrate to product. The percent conversion can be plotted against concentration of inhibitor to produce a sigmoidal dose response curve, from which an IC50 can be calculated using GeneData Condoseo or a similar product.

SMILES | IC50 [µM]
Cc1cc(C(=O)NC(C)(C)CO)cc(-c2cc3nccc(-c4ccccc4)c3o2)c1 [Compound A43, N-(2-Hydroxy-1,1-dimethyl-ethyl)-3-methyl-5-(7-phenyl-furo[3,2-b]pyridin-2-yl)-benzamide] | < 0.3
Fc1cc(F)cc(-c2cc3nccc(-c4cc(F)cc(F)c4)c3o2)c1 [Compound B1, 2,7-Bis-(3,5-difluoro-phenyl)-furo[3,2-b]pyridine] | 3 to 50
Fc1ccc(-c2cc3nccc(-c4ccc(F)cc4)c3o2)cc1 [Compound B6, 2,7-Bis-(4-fluoro-phenyl)-furo[3,2-b]pyridine] | 3 to 50
O=C(Nc1ccc(Oc2ccnc3cc(-c4ccccc4)oc23)cc1)c1cccn(-c2ccc(F)cc2)c1=O [Compound B13, 1-(4-Fluoro-phenyl)-2-oxo-1,2-dihydro-pyridine-3-carboxylic acid [4-(2-phenyl-furo[3,2-b]pyridin-7-yloxy)-phenyl]-amide] | 0.3 to 3
CCOc1ccn(-c2ccc(F)cc2)c(=O)c1C(=O)Nc1ccc(Oc2ccnc3cc(-c4ccccc4)oc23)cc1 [Compound B14, 4-Ethoxy-1-(4-fluoro-phenyl)-2-oxo-1,2-dihydro-pyridine-3-carboxylic acid [4-(2-phenyl-furo[3,2-b]pyridin-7-yloxy)-phenyl]-amide] | 0.3 to 3
CN(c1ncccc1CNc1ccnc2cc(-c3ccccc3)oc12)S(C)(=O)=O [Compound B20, N-Methyl-N-{3-[(2-phenyl-furo[3,2-b]pyridin-7-ylamino)-methyl]-pyridin-2-yl}-methanesulfonamide] | 3 to 50
COc1cc(-c2cc3nccc(Nc4ccc5c(n4)NC(=O)C(C)(C)O5)c3o2)cc(OC)c1OC [Compound B29, 2,2-Dimethyl-6-[2-(3,4,5-trimethoxy-phenyl)-furo[3,2-b]pyridin-7-ylamino]-4H-pyrido[3,2-b][1,4]oxazin-3-one] | 0.3 to 3
COc1c(C)cc(-c2cc3nccc(-c4cc(C)c(OC)c(C)c4)c3o2)cc1C [Compound B32, 2,7-Bis-(4-methoxy-3,5-dimethyl-phenyl)-furo[3,2-b]pyridine] | 3 to 50
Cc1cccc(-c2cc3nccc(-c4cccc(C)c4)c3o2)c1 [Compound B34, 2,7-Di-m-tolyl-furo[3,2-b]pyridine] | 3 to 50
COc1ccc(-c2cc3nccc(-c4ccc(OC)cc4)c3o2)cc1 [Compound B35, 2,7-Bis-(4-methoxy-phenyl)-furo[3,2-b]pyridine] | 3 to 50
c1cc(-c2ccc3c(c2)OCCO3)c2oc(-c3ccc4c(c3)OCCO4)cc2n1 [Compound B37, 2,7-Bis-(2,3-dihydro-benzo[1,4]dioxin-6-yl)-furo[3,2-b]pyridine] | 3 to 50
COc1cccc(-c2cc3nccc(-c4cccc(OC)c4OC)c3o2)c1OC [Compound B42, 2,7-Bis-(2,3-dimethoxy-phenyl)-furo[3,2-b]pyridine] | 3 to 50
CC(C)(C#N)c1ccc(-c2cc3nccc(-c4ccc(C(C)(C)C#N)cc4)c3o2)cc1 [Compound B55, 2-(4-{2-[4-(Cyano-dimethyl-methyl)-phenyl]-furo[3,2-b]pyridin-7-yl}-phenyl)-2-methyl-propionitrile] | 0.3 to 3
C=C(C)c1ccc(-c2cc3nccc(Nc4ccc5[nH]ccc5c4C)c3o2)cc1 [Compound B62, [2-(4-Isopropenyl-phenyl)-furo[3,2-b]pyridin-7-yl]-(4-methyl-1H-indol-5-yl)-amine] | 3 to 50

Next, values leading:

IC50 [µM] | SMILES
< 0.3 | CNC(=O)c1cccc(-c2ccnc3cc(-c4cc(OC)c(OC)c(OC)c4)oc23)c1 [Compound A7, N-Methyl-3-[2-(3,4,5-trimethoxy-phenyl)-furo[3,2-b]pyridin-7-yl]-benzamide]
< 0.3 | COc1cc(-c2cc3nccc(-c4cccc(C(=O)NCCN(C)C)c4)c3o2)cc(OC)c1OC [Compound A8, N-(2-Dimethylamino-ethyl)-3-[2-(3,4,5-trimethoxy-phenyl)-furo[3,2-b]pyridin-7-yl]-benzamide]
0.3 to 3 | COC(=O)c1cccc(-c2ccnc3cc(-c4cc(OC)c(OC)c(OC)c4)oc23)c1 [Compound A11, 3-[2-(3,4,5-Trimethoxy-phenyl)-furo[3,2-b]pyridin-7-yl]-benzoic acid methyl ester]
3 to 50 | COc1cc(-c2cc3nccc(-c4ccc(C#N)cc4)c3o2)cc(OC)c1OC [Compound A12, 4-[2-(3,4,5-Trimethoxy-phenyl)-furo[3,2-b]pyridin-7-yl]-benzonitrile]
0.3 to 3 | COc1cc(-c2cc3nccc(-c4cccc5ncccc45)c3o2)cc(OC)c1OC [Compound A18, 5-[2-(3,4,5-Trimethoxy-phenyl)-furo[3,2-b]pyridin-7-yl]-quinoline]
< 0.3 | COc1cc(-c2cc3nccc(-c4ccccc4C)c3o2)cc(OC)c1OC [Compound A21, 7-o-Tolyl-2-(3,4,5-trimethoxy-phenyl)-furo[3,2-b]pyridine]
0.3 to 3 | COc1cc(-c2cc3nccc(-c4cccc5ccccc45)c3o2)cc(OC)c1OC [Compound A22, 7-Naphthalene-1-yl-2-(3,4,5-trimethoxy-phenyl)-furo[3,2-b]pyridine]
< 0.3 | COc1cc(-c2cc3nccc(-c4ccc5ncccc5c4)c3o2)cc(OC)c1OC [Compound A23, 6-[2-(3,4,5-Trimethoxy-phenyl)-furo[3,2-b]pyridin-7-yl]-quinoline]
0.3 to 3 | COc1cc(-c2cc3nccc(-c4ccnc5ccccc45)c3o2)cc(OC)c1OC [Compound A24, 4-[2-(3,4,5-Trimethoxy-phenyl)-furo[3,2-b]pyridin-7-yl]-quinoline]
0.3 to 3 | COc1cc(-c2cc3nccc(-c4ccc(C)c5ncccc45)c3o2)cc(OC)c1OC [Compound A26, 8-Methyl-5-[2-(3,4,5-trimethoxy-phenyl)-furo[3,2-b]pyridin-7-yl]-quinoline]
< 0.3 | COc1cc(-c2cc3nccc(-c4ccc5cc[nH]c5c4)c3o2)cc(OC)c1OC [Compound A27, 7-(1H-Indol-6-yl)-2-(3,4,5-trimethoxy-phenyl)-furo[3,2-b]pyridine]
3 to 50 | COc1cc(-c2cc3nccc(-c4cccc(OCc5ccccc5)c4)c3o2)cc(OC)c1OC [Compound A31, 7-(3-Benzyloxy-phenyl)-2-(3,4,5-trimethoxy-phenyl)-furo[3,2-b]pyridine]
0.3 to 3 | COc1cc(-c2cc3nccc(-c4ccc(C)cc4C)c3o2)cc(OC)c1OC [Compound A32, 7-(2,4-Dimethyl-phenyl)-2-(3,4,5-trimethoxy-phenyl)-furo[3,2-b]pyridine]
< 0.3 | CCOC(=O)Cn1cc(-c2ccnc3cc(-c4cc(OC)c(OC)c(OC)c4)oc23)cn1 [Compound A33, {4-[2-(3,4,5-Trimethoxy-phenyl)-furo[3,2-b]pyridin-7-yl]-pyrazol-1-yl}-acetic acid ethyl ester]
< 0.3 | COc1cc(-c2cc3nccc(-c4cnn(C)c4)c3o2)cc(OC)c1OC [Compound A34, 7-(1-Methyl-1H-pyrazol-4-yl)-2-(3,4,5-trimethoxy-phenyl)-furo[3,2-b]pyridine]
0.3 to 3 | COc1cc(-c2cc3nccc(-c4ccc(CNC(C)=O)cc4)c3o2)cc(OC)c1OC [Compound A54, N-{4-[2-(3,4,5-Trimethoxy-phenyl)-furo[3,2-b]pyridin-7-yl]-benzyl}-acetamide]
3 to 50 | COc1cc(-c2cc3nccc(NCc4cccnc4N(C)S(C)(=O)=O)c3o2)cc(OC)c1OC [Compound B7, N-Methyl-N-(3-{[2-(3,4,5-trimethoxy-phenyl)-furo[3,2-b]pyridin-7-ylamino]-methyl}-pyridin-2-yl)-methanesulfonamide]
3 to 50 | COc1cc(-c2cc3nccc(NCc4cccc(S(C)(=O)=O)c4)c3o2)cc(OC)c1OC [Compound B9]
0.3 to 3 | COc1ccc(-c2cc3nccc(-c4ccc(OC)c(OC)c4)c3o2)cc1OC [Compound B39, 2,7-Bis-(3,4-dimethoxy-phenyl)-furo[3,2-b]pyridine]
0.3 to 3 | COc1cc(-c2cc3nccc(-c4cc(C)c(OC)c(C)c4)c3o2)cc(OC)c1OC [Compound B73, 7-(4-Methoxy-3,5-dimethylphenyl)-2-(3,4,5-trimethoxyphenyl)furo[3,2-b]pyridine]
3 to 50 | COc1cc(-c2cc3nccc(-c4ccc(C(=O)NC5CCCC5)cc4)c3o2)cc(OC)c1OC [Compound B75, N-Cyclopentyl-4-(2-(3,4,5-trimethoxyphenyl)furo[3,2-b]pyridin-7-yl)benzamide]
